Here are results for 26 compounds from patent publication US5733912A, “7A-heterocycle substituted hexahydro-1H-pyrrolizine compounds useful in controlling chemical synaptic transmission” (Abbott Laboratories, priority 1997, dated 1998).

Assay [1] concerns the target neuronal nicotinic acetylcholine receptors. The experiment in a line: Displacement of [3H]-cytisine from nicotinic acetylcholine receptors, crude synaptic membrane preparations from whole rat brain. As to conditions: [3H]-cytisine 1.25 nM, whole rat brain membranes, 60 minutes at 4° C.; IC50 converted to Ki by Cheng and Prusoff; read-out: Binding to Neuronal Nicotinic Acetylcholine Receptors (Binding). As for the experimental part:
For the purpose of identifying compounds as cholinergic agents which are capable of interacting with nicotinic acetylcholine receptors in the brain, a ligand-receptor binding assay was carried out as the initial screen. Compounds of the present invention were effective at interacting with neuronal nicotinic acetylcholine receptors as assayed for their ability to displace radioligand from neuronal nicotinic acetylcholine channel receptors labeled with [^3 H]-cytisine ([^3 H]-CYT).
Displacement of [^3 H]-CYT from nicotinic acetylcholine receptors was determined using crude synaptic membrane preparations from whole rat brain (Pabreza et al., Molecular Pharmacol., 1990, 39: 9). Washed membranes were stored at -80° C. prior to use. Frozen aliquots were slowly thawed and resuspended in 20 volumes of buffer (containing: 120 mM NaCl, 5 mM KCl, 2 mM MgCl2, 2 mM CaCl2 and 50 mM Tris-Cl, pH 7.4 @4° C.). After centrifuging at 20,000×g for 15 minutes, the pellets were resuspended in 30 volumes of buffer. Homogenate (containing 125-150 μg protein) was added to triplicate tubes containing concentrations of test compound and [^3 H]-CYT (1.25 nM) in a final volume of 500 μL. Samples were incubated for 60 minutes at 4° C., then rapidly filtered through Whatman GF/B filters presoaked in 0.5% polyethylimine using 3×4 mL of ice-cold buffer. The filters are counted in 4 mL of Ecolume® (ICN). Nonspecific binding was determined in the presence of 10 μM (-)-nicotine and values were expressed as a percentage of total binding.
On the technique in general: In a radioligand displacement assay an active substance lowers the binding of a labelled ligand.

The test system of assay [2] is neuronal nicotinic acetylcholine receptors. Briefly: 86Rb+ efflux assay in IMR-32 human neuroblastoma cells (activation or inhibition of neuronal nicotinic acetylcholine receptors). The class given is cell-based. As to conditions: for IMR-32 % response (conc.): relative to the response elicited by 100 μM (S)-nicotine; for IMR-32 % Inhibition (conc.): inhibition of the efflux elicited by 100 μM (S)-nicotine. As for the experimental part:
Cells of the IMR-32 human neuroblastoma clonal cell line (ATCC, Rockville, Md.) were maintained in a log phase of growth according to established procedures (Lukas, 1993). Experimental cells were seeded at a density of 500,000 cells/mL into a 24-well tissue culture dish. Plated cells were allowed to proliferate for at least 48 hours before loading with 2 μCi/mL of ^86 Rb^+ (35 Ci/mmol) overnight at 37° C. The ^86 Rb^+ efflux assays were performed according to previously published protocols (Lukas, R. J., J. Pharmacol. Exp. Ther., 265: 294-302, 1993) except serum-free Dulbecco's Modified Eagle's Medium was used during the ^86 Rb^+ loading, rinsing, and agonist-inducedefflux steps.
Responses (reported as percent relative to the response elicited by 100 μM (S)-nicotine) are shown for the indicated concentrations of selected compounds of the invention. The inhibition data (given for other selected compounds) reflect inhibition of the efflux elicited by 100 μM (S)-nicotine at the indicated concentration. […] This finding is in agreement with the results of others who have linked dopamine release, which is dependent upon the ion flux in synaptic transmission, to binding at nicotinic receptors (cf., for example, Lippiello and Caldwell, U.S. Pat. No. 5,242,935, issued Sep. 7, 1993; Caldwell and Lippiello, U.S. Pat. No. 5,248,690, issued Sep. 28, 1993; and Wonnacott et al., Prog. Brain Res., 79: 157-163 (1989)).

pKi: −log10 of the molar value. Counter-ions that a name gives are not always drawn.

`c1ccc(-c2cncc(C34CCCN3CCC4)c2)cc1` [Example 25, 7a-(5-phenyl-3-pyridinyl)-hexahydro-1H-pyrrolizine hydrochloride salt]: in assay [1], the pKi is 9.60.
Take `Cc1cc(C23CCCN2CCC3)[nH]n1` [Example 2, 7a-(1H-3-methyl-5-pyrazolyl)-hexahydro-1H-pyrrolizine dihydrochloride]: the pKi in assay [1] was 7.15.
On to `CCCc1cc(C23CCCN2CCC3)on1.Cl` [Example 14, 7a-(3-propyl-5-isoxazolyl)-hexahydro-1H-pyrrolizine hydrochloride salt], for which the pKi in assay [1] was 8.77. Moreover, the “IMR-32 % response (conc.)” value in assay [2] (100 μM) was 74%.
For the compound `c1ccc(COc2cncc(C34CCCN3CCC4)c2)cc1` [Example 16b, 7a-(3-benzyloxy-5-pyridinyl)-hexahydro-1H-pyrrolizine], the pKi in assay [1] was 9.57.
For `Brc1cncc(C23CCCN2CCC3)c1.Cl` [Example 17, 7a-(5-bromo-3-pyridinyl)-hexahydro-1H-pyrrolizine hydrochloride salt], the pKi in assay [1] was 9.21. The “IMR-32 % response (conc.)” value in assay [2] (10 μM) was 41%.
As to `Clc1ccc(C23CCCN2CCC3)c(Cl)n1` [Example 11, 7a-(2,6-dichloro-3-pyridinyl)-hexahydro-1H-pyrrolizine hydrochloride salt], the pKi in assay [1] is 5.85.
Take `Cl.Fc1ccc(C23CCCN2CCC3)c(F)n1` [Example 10, 7a-(2,6-difluoro-3-pyridinyl)-hexahydro-1H-pyrrolizine hydrochloride]: the pKi in assay [1] is 8.54. Besides, in assay [2] (10 μM), the “IMR-32 % Inhibition (conc.)” value worked out at 12% and the “IMR-32 % response (conc.)” value was determined as 13%.
For `Fc1ncccc1C12CCCN1CCC2` [Example 6, 7a-(2-fluoro-3-pyridinyl)-hexahydro-1H-pyrrolizine hydrochloride salt], the pKi in assay [1] is 8.24.
`Clc1ncccc1C12CCCN1CCC2` [Example 7, 7a-(2-chloro-3-pyridinyl)-hexahydro-1H-pyrrolizine hydrochloride]: the pKi in assay [1] is 6.36.
Regarding `Cl.Fc1ncc(C23CCCN2CCC3)cc1Cl` [Example 23, 7a-(5-chloro-6-fluoro-3-pyridinyl)-hexahydro-1H-pyrrolizine hydrochloride salt], in assay [1], the pKi was 9.64. The “IMR-32 % response (conc.)” value in assay [2] (10 μM) worked out at 68%.
Consider `Cl.Clc1cc(C23CCCN2CCC3)cnc1Cl` [Example 8, 7a-(5,6-dichloro-3-pyridinyl)-hexahydro-1H-pyrrolizine hydrochloride], for which, in assay [1], the pKi was 10.26. The “IMR-32 % response (conc.)” value in assay [2] (1 μM) is given as 71%.
As for `CCc1cc(C23CCCN2CCC3)on1.Cl` [Example 13, 7a-(3-ethyl-5-isoxazolyl)-hexahydro-1H-pyrrolizine hydrochloride salt], the pKi in assay [1] was 8.85. Further, the “IMR-32 % response (conc.)” value in assay [2] (100 μM) is reported as 108%.
As to `Cl.Cl.c1ccc2ncc(C34CCCN3CCC4)cc2c1` [Example 4, 7a-(3-quinolinyl)-hexahydro-1H-pyrrolizine dihydrochloride], the pKi in assay [1] is 8.37. Further, the “IMR-32 % response (conc.)” value in assay [2] (10 μM) came to 40%.
Consider `Cc1cc(C23CCCN2CCC3)cnc1F.Cl` [Example 18, 7a-(6-fluoro-5-methyl-3-pyridinyl)hexahydro-1H-pyrrolizine hydrochloride salt], for which the pKi in assay [1] was 9.96. Further, the “IMR-32 % response (conc.)” value in assay [2] (10 μM) is recorded as 66%.
With `Cc1cc(C23CCCN2CCC3)on1.Cl` [Example 1, 7a-(3-methyl-5-isoxazolyl)-hexahydro-1H-pyrrolizine hydrochloride], in assay [1], the pKi was 9.01. The “IMR-32 % response (conc.)” value in assay [2] (10 μM) was determined as 110%.
Turning to `Cc1ccncc1C12CCCN1CCC2.Cl` [Example 24, 7a-(4-methyl-3-pyridinyl)-hexahydro-1H-pyrrolizine hydrochloride salt], the pKi in assay [1] was 7.14. The “IMR-32 % Inhibition (conc.)” value in assay [2] (10 μM) stood at 14%. In assay [2] (100 μM), the “IMR-32 % response (conc.)” value worked out at 0%.
Consider `Cc1ccc(C23CCCN2CCC3)cn1.Cl` [Example 20, 7a-(6-methyl-3-pyridinyl)-hexahydro-1H-pyrrolizine hydrochloride salt], for which the pKi in assay [1] was 9.25. Besides, the “IMR-32 % response (conc.)” value in assay [2] (1 μM) was found to be 98%.
`Cl.c1ncc(C23CCCN2CCC3)cn1` [Example 9, 7a-(5-pyrimidinyl)-hexahydro-1H-pyrrolizine hydrochloride]: the pKi in assay [1] was 8.43. Besides, the “IMR-32 % response (conc.)” value in assay [2] (100 μM) stood at 39%.
Take `c1ccc(Cc2cc(C34CCCN3CCC4)on2)cc1` [Example 15, 7a-(3-benzyl-5-isoxazolyl)-hexahydro-1H-pyrrolizine hydrochloride salt]: in assay [1], the pKi was 8.40.
With `Cc1cc(C23CCCN2CCC3)cnc1Cl.Cl` [Example 19, 7a-(6-chloro-5-methyl-3-pyridinyl)-hexahydro-1H-pyrrolizine hydrochloride salt], the pKi in assay [1] is 10.30. Moreover, the “IMR-32 % response (conc.)” value in assay [2] (1 μM) is recorded as 91%.
For `Cc1cncc(C23CCCN2CCC3)c1.Cl` [Example 21, 7a-(5-methyl-3-pyridinyl)-hexahydro-1H-pyrrolizine hydrochloride salt], the pKi in assay [1] is 9.48. Besides, in assay [2] (1 μM), the “IMR-32 % response (conc.)” value amounted to 56%.
`Cl.Fc1ccc(C23CCCN2CCC3)cn1` [Example 12, 7a-(6-fluoro-3-pyridinyl)-hexahydro-1H-pyrrolizine hydrochloride salt]: the pKi in assay [1] is 9.57. For the same compound, in assay [2] (10 μM), the “IMR-32 % response (conc.)” value is reported as 93%.
`Cl.Oc1cncc(C23CCCN2CCC3)c1` [Example 16, 7a-(3-hydroxy-5-pyridinyl)-hexahydro-1H-pyrrolizine hydrochloride salt]: the pKi in assay [1] is 8.85. The “IMR-32 % response (conc.)” value in assay [2] (100 μM) is given as 53%.
In the case of `Cl.Fc1ncc(C23CCCN2CCC3)cc1Br` [Example 22, 7a-(5-bromo-6-fluoro-3-pyridinyl)-hexahydro-1H-pyrrolizine hydrochloride salt], the pKi in assay [1] is 9.66. In assay [2] (10 μM), the “IMR-32 % response (conc.)” value came out at 42%.
Take `Cl.c1cncc(C23CCCN2CCC3)c1` [Example 3, 7a-(3-pyridinyl)-hexahydro-1H-pyrrolizine hydrochloride]: the pKi in assay [1] was 9.42. Besides, the “IMR-32 % response (conc.)” value in assay [2] (10 μM) is on record as 71%.
For `Cl.Clc1ccc(C23CCCN2CCC3)cn1` [Example 5, 7a-(6-chloro-3-pyridinyl)-hexahydro-1H-pyrrolizine hydrochloride], the pKi in assay [1] is 10.00. In addition, the “IMR-32 % response (conc.)” value in assay [2] (1 μM) worked out at 82%.
